In US20230090742A1, “AMINOPYRIMIDINYLAMINOBENZONITRILE DERIVATIVES AS NEK2 INHIBITORS” (Sumitomo Pharma Oncology, Inc., priority 2020, published 2023):

Key:
NEK2 = biological target: T1, NEK2 (Homo sapiens, UniProt P51955); assay: NanoBRET Target Engagement Intracellular Kinase Assay for NEK2 in transfected HEK293 cells; format: cell-based; conditions: NEK2 target engagement, read-out: NanoBRET IC50
T1 construct: expressed in transfected cells; host or cells: HEK293
T1 sequence (P51955 1-445): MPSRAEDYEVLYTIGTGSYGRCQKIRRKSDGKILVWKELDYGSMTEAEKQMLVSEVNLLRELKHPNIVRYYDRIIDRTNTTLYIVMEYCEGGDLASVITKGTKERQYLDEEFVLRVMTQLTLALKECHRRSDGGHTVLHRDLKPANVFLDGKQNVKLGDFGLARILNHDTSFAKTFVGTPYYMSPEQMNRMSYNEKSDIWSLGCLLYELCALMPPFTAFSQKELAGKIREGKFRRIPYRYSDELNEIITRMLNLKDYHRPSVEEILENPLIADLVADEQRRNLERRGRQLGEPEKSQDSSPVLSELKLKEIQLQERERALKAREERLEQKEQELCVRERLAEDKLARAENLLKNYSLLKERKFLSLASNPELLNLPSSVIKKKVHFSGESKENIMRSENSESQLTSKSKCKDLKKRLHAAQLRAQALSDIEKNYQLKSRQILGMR
Experimental: In this example, the compounds described herein were tested for their inhibitory activity against NEK2 using a model of in vivo activity by the NanoBRET™ Target Engagement Intracellular Kinase Assay (Reaction Biology Corp.). The assay was performed according to the manufacturer's protocol, as detailed below.
HEK293 cells were cultivated (70-80% confluence) prior to the assay. The sample was trypsinized and HEK293 cells were collected.
To prepare lipid: DNA complexes, a 10 μg/ml solution of DNA in Opti-MEM without serum was prepared that consisted of the following ratios of carrier DNA and DNA encoding NanoLuc® fusion: 9.0 μg/ml of Transfection Carrier DNA, 1.0 μg/ml of NanoLuc fusion vector DNA and 1 ml of Opti-MEM without phenol red. The solution was mixed thoroughly. 30 μl of FuGENE HD Transfection Reagent was added into each milliliter of DNA mixture to form lipid: DNA complex. The sample was mixed by inversion 10 times and then incubated at ambient temperature for 20 minutes to allow complexes to form. In a sterile, conical tube, 1 part of lipid:DNA complex was mixed with 20 parts of HEK293 cells in suspension. The resulting sample was mixed gently by inversion 5 times. The cell and lipid: DNA complex was dispensed into a sterile tissue culture dish and incubated for 22-24 hours.
Each test compound is delivered from the compound source plate to the wells of 384-well white NBS plate by Echo 550.
Step 3. Preparation of Cells with NanoBRET™ Tracer K5 Reagent:
The medium was removed from the dish with the transfected HEK293 cells via aspiration, trypsinized and cells were allowed to dissociate from the dish. Trypsin was neutralized using medium containing serum and centrifuged at 200×g for 5 minutes to pellet the cells. The cell density was adjusted to 2×10^5 cells/ml in Opti-MEM without phenol red.
The Complete 20× NanoBRET™ Tracer K5 Reagent with Tracer Dilution Buffer was prepared according to the manufacturer's instructions. One part of Complete 20× NanoBRET™ Tracer Reagent was added to 20 parts of cells in the tube. The sample was mixed gently by inversion 10 times. Next, the cell suspension was dispensed into white, 384-well NBS plates with a final tracer K5 concentration of 2 μM. The plate was incubated at 37° C., 5% CO2 for 1 hour. A separate set of samples without tracer were prepared for background correction steps.
The plate was removed from the incubator and equilibrated to room temperature for 15 minutes. The 3× Complete Substrate plus Inhibitor Solution in Assay Medium (Opti-MEMR I Reduced Serum Medium, no phenol red) was prepared just before measuring BRET. The 3× Complete Substrate plus Inhibitor Solution was added to each well of the 384-well plate and incubated for 2-3 minutes at room temperature. The donor emission wavelength (460 nm) and acceptor emission wavelength (600 nm) were measured using the Envision 2104 plate reader.
To generate raw BRET ratio values, the acceptor emission value (600 nm) was divided by the donor emission value (460 nm) for each sample. To correct for background, the BRET ratio in the absence of tracer (average of no-tracer control samples) was subtracted from the BRET ratio of each sample.
BRET Ratio=[(Acceptor sample÷Donor sample)−(Acceptor no-tracer control÷Donor no-tracer control)]

[1] = biological target: T2, NEK2 kinase (Accession No. NP-002488) (Homo sapiens, UniProt P51955); assay: HotSpot Kinase Assay, NEK2; format: biochemical; conditions: HotSpot Kinase Assay; read-out: NEK2 IC50
T2 construct: purchased ThermoFisher Scientific (Invitrogen)
T2 sequence (P51955 1-445): T1 sequence (P51955 1-445)
Experimental: In this example, the compounds described herein were tested for their inhibitory activity against NEK2 and/or Aurora A using the HotSpot™ Kinase Assay (Reaction Biology Corp.). The assay was performed according to the manufacturer's protocol, as detailed below. The NEK2 kinase (Accession No. NP-002488) and Aurora A kinase (Accession No. NP-940839) for use in these assays was sourced from ThermoFisher Scientific (Invitrogen).
The base Reaction Buffer used in this experiment contained the following: 20 mM Hepes (pH 7.5), 10 mM MgCl2, 1 mM EGTA, 0.02% Brij™-35, 0.02 mg/ml BSA, 0.1 mM Na3VO4, 2 mM DTT, and 1% DMSO. The required cofactors were added individually to each kinase reaction.
Testing compounds were dissolved in 100% DMSO to a specific concentration. The serial dilution was conducted by Integra Viaflo Assist in DMSO.
The substrate was prepared in freshly prepared Reaction Buffer. The required cofactors were delivered to the substrate solution described above. NEK2 kinase or Aurora A kinase was delivered to the substrate solution and gently mixed. Next, the compounds in 100% DMSO were transferred to the kinase reaction mixture by Acoustic technology (Echo550; nanoliter range) and incubated for 20 min at room temperature. ^33P-ATP (Specific activity 10 μCi/μl) was delivered into the reaction mixture to initiate the reaction. The reaction was incubated for 2 hours at room temperature. Radioactivity was then detected by the filter-binding method. Kinase activity data were expressed as the percent remaining kinase activity in test samples compared to vehicle (dimethyl sulfoxide) reactions. IC50 values and curve fits were obtained using Prism (GraphPad Software).

| Compound | IC50 (NEK2) [nM] | IC50 [1] [nM] |
| --- | --- | --- |
| N#Cc1c(Nc2nc(Nc3ccc(CN4CCOCC4)cc3)ncc2Cl)cccc1OCc1ccccc1F [Compound 1, 2-((5-chloro-2-((4-(morpholinomethyl)phenyl)amino)pyrimidin-4-yl)amino)-6-((2-fluorobenzyl)oxy)benzonitrile] | ≤ 50 | > 15 |
| C[C@H](Oc1cccc(Nc2nc(Nc3ccc(N4CCN(C)CC4)cc3)ncc2Cl)c1C#N)c1ccccc1F [Compound 3, (S)-2-((5-chloro-2-((4-(4-methylpiperazin-1-yl)phenyl)amino)pyrimidin-4-yl)amino)-6-(1-(2-fluorophenyl)ethoxy)benzonitrile] | ≤ 50 | ≤ 5 |
| C[C@@H](Oc1cccc(Nc2nc(Nc3ccc(N4CCN(C)CC4)cc3)ncc2Cl)c1C#N)c1ccccc1F [Compound 4, (R)-2-((5-chloro-2-((4-(4-methylpiperazin-1-yl)phenyl)amino)pyrimidin-4-yl)amino)-6-(1-(2-fluorophenyl)ethoxy)benzonitrile] | > 150 | > 15 |
| N#Cc1c(Nc2nc(Nc3ccc(C(=O)N4CCNCC4)cc3)ncc2Cl)cccc1OCc1ccccc1F [Compound 6, 2-((5-chloro-2-((4-(piperazine-1-carbonyl)phenyl)amino)pyrimidin-4-yl)amino)-6-((2-fluorobenzyl)oxy)benzonitrile] | > 150 | > 15 |
| COc1cc(N2CCNCC2)ccc1Nc1ncc(Cl)c(Nc2cccc(OCc3ccccc3F)c2C#N)n1 [Compound 7, 2-((5-chloro-2-((2-methoxy-4-(piperazin-1-yl)phenyl)amino)pyrimidin-4-yl)amino)-6-((2-fluorobenzyl)oxy)benzonitrile] | > 150 | ≤ 5 |
| N#Cc1c(Nc2nc(Nc3ccc(N4CCNCC4)nc3)ncc2Cl)cccc1OCc1ccccc1F [Compound 8, 2-((5-chloro-2-((6-(piperazin-1-yl)73yridine-3-yl)amino)pyrimidin-4-yl)amino)-6-((2-fluorobenzyl)oxy)benzonitrile] | > 150 | 5 to 15 |
| COc1cc(Nc2ncc(Cl)c(Nc3cccc(OCc4ccccc4F)c3C#N)n2)ccc1N1CCNCC1 [Compound 9, 2-((5-chloro-2-((3-methoxy-4-(piperazin-1-yl)phenyl)amino)pyrimidin-4-yl)amino)-6-((2-fluorobenzyl)oxy)benzonitrile] | ≤ 50 | ≤ 5 |
| COc1ccccc1COc1cccc(Nc2nc(Nc3ccc(N4CCNCC4)cc3)ncc2Cl)c1C#N [Compound 11, 2-((5-chloro-2-((4-(piperazin-1-yl)phenyl)amino)pyrimidin-4-yl)amino)-6-((2-methoxybenzyl)oxy)benzonitrile] | > 150 | > 15 |
| N#Cc1c(Nc2nc(Nc3ccc(N4CCNCC4)cc3)ncc2Cl)cccc1OCc1ccc(F)cc1 [Compound 13, 2-((5-chloro-2-((4-(piperazin-1-yl)phenyl)amino)pyrimidin-4-yl)amino)-6-((4-fluorobenzyl)oxy)benzonitrile] | > 150 | > 15 |
| N#Cc1c(Nc2nc(Nc3ccc(N4CCNCC4)cc3)ncc2Cl)cccc1OCc1cccc(F)c1 [Compound 14, 2-((5-chloro-2-((4-(piperazin-1-yl)phenyl)amino)pyrimidin-4-yl)amino)-6-((3-fluorobenzyl)oxy)benzonitrile] | > 150 | > 15 |
| N#Cc1c(Nc2nc(Nc3ccc(CN4CCNCC4)cc3)ncc2Cl)cccc1OCc1ccccc1F [Compound 15, 2-((5-chloro-2-((4-(piperazin-1-ylmethyl)phenyl)amino)pyrimidin-4-yl)amino)-6-((2-fluorobenzyl)oxy)benzonitrile] | > 150 | 5 to 15 |
| N#Cc1c(Nc2nc(Nc3ccc(N4CCN(CCO)CC4)cc3)ncc2Cl)cccc1OCc1ccccc1F [Compound 17, 2-((5-chloro-2-((4-(4-(2-hydroxyethyl)piperazin-1-yl)phenyl)amino)pyrimidin-4-yl)amino)-6-((2-fluorobenzyl)oxy)benzonitrile] | 50 to 150 | ≤ 5 |
| CN1CCN(c2ccc(Nc3ncc(Cl)c(Nc4cccc(OCc5ccccc5F)c4C#N)n3)cc2)CC1 [Compound 18, 2-((5-chloro-2-((4-(4-methylpiperazin-1-yl)phenyl)amino)pyrimidin-4-yl)amino)-6-((2-fluorobenzyl)oxy)benzonitrile] | 50 to 150 | ≤ 5 |
| N#Cc1c(Nc2nc(Nc3ccc(N4CCNCC4)cc3)ncc2Cl)cccc1OCc1c(F)cccc1F [Compound 19, 2-((5-chloro-2-((4-(piperazin-1-yl)phenyl)amino)pyrimidin-4-yl)amino)-6-((2,6-difluorobenzyl)oxy)benzonitrile] | ≤ 50 | 5 to 15 |
| N#Cc1c(Nc2nc(Nc3ccc(C4CCNCC4)cc3)ncc2Cl)cccc1OCc1ccccc1F [Compound 27, 2-((5-chloro-2-((4-(piperidin-4-yl)phenyl)amino)pyrimidin-4-yl)amino)-6-((2-fluorobenzyl)oxy)benzonitrile] | 50 to 150 | ≤ 5 |
| N#Cc1c(Nc2nc(Nc3cnn(C4CCNCC4)c3)ncc2Cl)cccc1OCc1ccccc1F [Compound 31, 2-((5-chloro-2-((1-(piperidin-4-yl)-1H-pyrazol-4-yl)amino)pyrimidin-4-yl)amino)-6-((2-fluorobenzyl)oxy)benzonitrile] | > 150 | 5 to 15 |
